Earlier results as cited in patent publication US12130296B2, “Method for the direct detection and/or quantification of at least one compound with a molecular weight of at least 200” (SANIFIT THERAPEUTICS S.A., priority 2011, dated 2024).

Conditions: 12 dissociable protons; Carbohydr Res 46, 159-171; 1976

pKa values: from negative values to more than 10
Structure (SMILES): O=P(O)(O)O[C@H]1[C@H](OP(=O)(O)O)[C@@H](OP(=O)(O)O)[C@H](OP(=O)(O)O)[C@@H](OP(=O)(O)O)[C@H]1OP(=O)(O)O [inositol hexaphosphate]
